Test results from patent US10125138B2, “Triazolotriazinone derivatives having activity a s herbicides” (Syngenta Participations AG, priority 2015, dated 2018).

Legend:
Assay type in all cases: in vivo
Settings in all cases: 1000 g/h, evaluated after 13 days, five point scale
Lolium perenne (LOLPE) [1] = test: Post-emergence glasshouse herbicide test, Lolium perenne
Solanum nigrum (SOLNI) [2] = test: Post-emergence glasshouse herbicide test, Solanum nigrum
Outline: (§1)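 A spray solution in acetone/water (50:50) with 0.5% Tween 20 delivered 1000 g/h to soil-sown plants at day 1 or day 8 after sowing. After 13 days of glasshouse growth with twice-daily watering, percentage damage was scored in five bands.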

[3] = tested on: Amaranthus retoflexus (AMARE); test: Post-emergence glasshouse herbicide test, Amaranthus retoflexus
Setaria faberi (SETFA) [4] = test: Post-emergence glasshouse herbicide test, Setaria faberi
[5] = tested on: Echinochloa crus-galli (ECHCG); test: Post-emergence glasshouse herbicide test, Echinochloa crus-galli
[6] = tested on: Ipomoea hederacea (IPOHE); test: Post-emergence glasshouse herbicide test, Ipomoea hederacea
Lolium perenne (LOLPE) [7] = test: Pre-emergence glasshouse herbicide test, Lolium perenne
Solanum nigrum (SOLNI) [8] = test: Pre-emergence glasshouse herbicide test, Solanum nigrum
Outline: as §1

[9] = tested on: Amaranthus retoflexus (AMARE); test: Pre-emergence glasshouse herbicide test, Amaranthus retoflexus
Setaria faberi (SETFA) [10] = test: Pre-emergence glasshouse herbicide test, Setaria faberi
[11] = tested on: Echinochloa crus-galli (ECHCG); test: Pre-emergence glasshouse herbicide test, Echinochloa crus-galli
[12] = tested on: Ipomoea hederacea (IPOHE); test: Pre-emergence glasshouse herbicide test, Ipomoea hederacea

CCn1nnnc1NC(=O)c1nn2cnn(-c3cccc(Cl)c3)c2nc1=O [Compound 1.033]
4 (4=60-79%): percentage damage caused to the plant, POST Application LOLPE (Lolium perenne (LOLPE) [1]) | percentage damage caused to the plant, PRE Application SETFA (Setaria faberi (SETFA) [10])
5 (5=80-100%): percentage damage caused to the plant, POST Application SOLNI (Solanum nigrum (SOLNI) [2]) | percentage damage caused to the plant, POST Application AMARE [3] | percentage damage caused to the plant, POST Application SETFA (Setaria faberi (SETFA) [4]) | percentage damage caused to the plant, POST Application ECHCG [5] | percentage damage caused to the plant, POST Application IPOHE [6] | percentage damage caused to the plant, PRE Application LOLPE (Lolium perenne (LOLPE) [7]) | percentage damage caused to the plant, PRE Application SOLNI (Solanum nigrum (SOLNI) [8]) | percentage damage caused to the plant, PRE Application AMARE [9] | percentage damage caused to the plant, PRE Application ECHCG [11]
2 (2=20-39%): percentage damage caused to the plant, PRE Application IPOHE [12]

CCn1nnnc1NC(=O)c1nn2cnn(-c3ccc(OC)cc3)c2nc1=O [Compound 1.034]
5 (5=80-100%): percentage damage caused to the plant, POST Application SOLNI (Solanum nigrum (SOLNI) [2]) | percentage damage caused to the plant, POST Application AMARE [3] | percentage damage caused to the plant, POST Application SETFA (Setaria faberi (SETFA) [4]) | percentage damage caused to the plant, POST Application ECHCG [5] | percentage damage caused to the plant, POST Application IPOHE [6] | percentage damage caused to the plant, PRE Application SOLNI (Solanum nigrum (SOLNI) [8]) | percentage damage caused to the plant, PRE Application AMARE [9] | percentage damage caused to the plant, PRE Application SETFA (Setaria faberi (SETFA) [10]) | percentage damage caused to the plant, PRE Application ECHCG [11]
4 (4=60-79%): percentage damage caused to the plant, POST Application LOLPE (Lolium perenne (LOLPE) [1]) | percentage damage caused to the plant, PRE Application LOLPE (Lolium perenne (LOLPE) [7])
3 (3=40-59%): percentage damage caused to the plant, PRE Application IPOHE [12]

COc1ccc(-n2ncn3nc(C(=O)Nc4nnnn4C)c(=O)nc23)cc1 [Compound 1.003]
5 (5=80-100%): percentage damage caused to the plant, POST Application SOLNI (Solanum nigrum (SOLNI) [2]) | percentage damage caused to the plant, POST Application AMARE [3] | percentage damage caused to the plant, POST Application SETFA (Setaria faberi (SETFA) [4]) | percentage damage caused to the plant, POST Application ECHCG [5] | percentage damage caused to the plant, POST Application IPOHE [6] | percentage damage caused to the plant, PRE Application SOLNI (Solanum nigrum (SOLNI) [8]) | percentage damage caused to the plant, PRE Application AMARE [9] | percentage damage caused to the plant, PRE Application SETFA (Setaria faberi (SETFA) [10]) | percentage damage caused to the plant, PRE Application ECHCG [11] | percentage damage caused to the plant, PRE Application IPOHE [12]
4 (4=60-79%): percentage damage caused to the plant, POST Application LOLPE (Lolium perenne (LOLPE) [1]) | percentage damage caused to the plant, PRE Application LOLPE (Lolium perenne (LOLPE) [7])

Cn1nnnc1NC(=O)c1nn2cnn(-c3cccc(Cl)c3)c2nc1=O [Compound 1.018]
3 (3=40-59%): percentage damage caused to the plant, PRE Application LOLPE (Lolium perenne (LOLPE) [7])
5 (5=80-100%): percentage damage caused to the plant, POST Application SOLNI (Solanum nigrum (SOLNI) [2]) | percentage damage caused to the plant, POST Application AMARE [3] | percentage damage caused to the plant, POST Application SETFA (Setaria faberi (SETFA) [4]) | percentage damage caused to the plant, POST Application ECHCG [5] | percentage damage caused to the plant, POST Application IPOHE [6] | percentage damage caused to the plant, PRE Application SOLNI (Solanum nigrum (SOLNI) [8]) | percentage damage caused to the plant, PRE Application SETFA (Setaria faberi (SETFA) [10]) | percentage damage caused to the plant, PRE Application ECHCG [11] | percentage damage caused to the plant, PRE Application IPOHE [12]
4 (4=60-79%): percentage damage caused to the plant, POST Application LOLPE (Lolium perenne (LOLPE) [1]) | percentage damage caused to the plant, PRE Application AMARE [9]

CCn1nnnc1NC(=O)c1nn2cnn(-c3ccc(C(F)(F)F)cc3)c2nc1=O [Compound 1.042]
3 (3=40-59%): percentage damage caused to the plant, POST Application LOLPE (Lolium perenne (LOLPE) [1]) | percentage damage caused to the plant, POST Application ECHCG [5]
4 (4=60-79%): percentage damage caused to the plant, POST Application AMARE [3] | percentage damage caused to the plant, POST Application SETFA (Setaria faberi (SETFA) [4]) | percentage damage caused to the plant, POST Application IPOHE [6] | percentage damage caused to the plant, PRE Application LOLPE (Lolium perenne (LOLPE) [7]) | percentage damage caused to the plant, PRE Application IPOHE [12]
5 (5=80-100%): percentage damage caused to the plant, POST Application SOLNI (Solanum nigrum (SOLNI) [2]) | percentage damage caused to the plant, PRE Application SOLNI (Solanum nigrum (SOLNI) [8]) | percentage damage caused to the plant, PRE Application AMARE [9] | percentage damage caused to the plant, PRE Application SETFA (Setaria faberi (SETFA) [10]) | percentage damage caused to the plant, PRE Application ECHCG [11]

CCCn1ncn2nc(C(=O)Nc3nnnn3C)c(=O)nc12 [Compound 1.007]
5 (5=80-100%): percentage damage caused to the plant, POST Application SOLNI (Solanum nigrum (SOLNI) [2]) | percentage damage caused to the plant, POST Application AMARE [3] | percentage damage caused to the plant, POST Application SETFA (Setaria faberi (SETFA) [4]) | percentage damage caused to the plant, POST Application ECHCG [5] | percentage damage caused to the plant, POST Application IPOHE [6] | percentage damage caused to the plant, PRE Application SOLNI (Solanum nigrum (SOLNI) [8]) | percentage damage caused to the plant, PRE Application AMARE [9] | percentage damage caused to the plant, PRE Application SETFA (Setaria faberi (SETFA) [10]) | percentage damage caused to the plant, PRE Application ECHCG [11]
4 (4=60-79%): percentage damage caused to the plant, PRE Application LOLPE (Lolium perenne (LOLPE) [7]) | percentage damage caused to the plant, PRE Application IPOHE [12]
3 (3=40-59%): percentage damage caused to the plant, POST Application LOLPE (Lolium perenne (LOLPE) [1])

CCn1nnnc1NC(=O)c1nn2cnn(-c3ccc(C)cc3C)c2nc1=O [Compound 1.045]
5 (5=80-100%): percentage damage caused to the plant, POST Application LOLPE (Lolium perenne (LOLPE) [1]) | percentage damage caused to the plant, POST Application SOLNI (Solanum nigrum (SOLNI) [2]) | percentage damage caused to the plant, POST Application AMARE [3] | percentage damage caused to the plant, POST Application SETFA (Setaria faberi (SETFA) [4]) | percentage damage caused to the plant, POST Application ECHCG [5] | percentage damage caused to the plant, POST Application IPOHE [6] | percentage damage caused to the plant, PRE Application LOLPE (Lolium perenne (LOLPE) [7]) | percentage damage caused to the plant, PRE Application SOLNI (Solanum nigrum (SOLNI) [8]) | percentage damage caused to the plant, PRE Application AMARE [9] | percentage damage caused to the plant, PRE Application ECHCG [11] | percentage damage caused to the plant, PRE Application IPOHE [12]
4 (4=60-79%): percentage damage caused to the plant, PRE Application SETFA (Setaria faberi (SETFA) [10])

CCCn1nnnc1NC(=O)c1nn2cnn(-c3ccc(F)cc3)c2nc1=O [Compound 1.038]
5 (5=80-100%): percentage damage caused to the plant, POST Application LOLPE (Lolium perenne (LOLPE) [1]) | percentage damage caused to the plant, POST Application SOLNI (Solanum nigrum (SOLNI) [2]) | percentage damage caused to the plant, POST Application AMARE [3] | percentage damage caused to the plant, POST Application SETFA (Setaria faberi (SETFA) [4]) | percentage damage caused to the plant, POST Application ECHCG [5] | percentage damage caused to the plant, POST Application IPOHE [6] | percentage damage caused to the plant, PRE Application SOLNI (Solanum nigrum (SOLNI) [8]) | percentage damage caused to the plant, PRE Application AMARE [9] | percentage damage caused to the plant, PRE Application SETFA (Setaria faberi (SETFA) [10]) | percentage damage caused to the plant, PRE Application ECHCG [11] | percentage damage caused to the plant, PRE Application IPOHE [12]
4 (4=60-79%): percentage damage caused to the plant, PRE Application LOLPE (Lolium perenne (LOLPE) [7])

CCn1nnnc1NC(=O)c1nn2cnn(-c3ccccc3)c2nc1=O [Compound 1.013]
5 (5=80-100%): percentage damage caused to the plant, POST Application LOLPE (Lolium perenne (LOLPE) [1]) | percentage damage caused to the plant, POST Application SOLNI (Solanum nigrum (SOLNI) [2]) | percentage damage caused to the plant, POST Application AMARE [3] | percentage damage caused to the plant, POST Application SETFA (Setaria faberi (SETFA) [4]) | percentage damage caused to the plant, POST Application ECHCG [5] | percentage damage caused to the plant, POST Application IPOHE [6] | percentage damage caused to the plant, PRE Application LOLPE (Lolium perenne (LOLPE) [7]) | percentage damage caused to the plant, PRE Application SOLNI (Solanum nigrum (SOLNI) [8]) | percentage damage caused to the plant, PRE Application AMARE [9] | percentage damage caused to the plant, PRE Application SETFA (Setaria faberi (SETFA) [10]) | percentage damage caused to the plant, PRE Application ECHCG [11] | percentage damage caused to the plant, PRE Application IPOHE [12]
